The values that follow come from patent publication US9957289B2, “Compounds and methods for treating bacterial infections” (Washington University, priority 2013, dated 2018).

Molecules are shown by their SMILES. Converted amounts (≈) assume the structure as drawn.

The conditions of data set [1]: mice, after 3 days of 54 μg/ml TMP and 270 μg/ml SMZ in drinking water. The procedure: (§1) Mice were IP treated with 6 30 min prior to inoculation with bacteria and compared to a control group of untreated animals. After inoculation with UTI89 or PBC-1, bacterial CFUs were quantified at 6 hpi.
Water was changed daily for 3 days prior to inoculation with UTI89.

In data set [2] the test system is PBC-1. As to the kind of experiment: Growth curve / MIC in TMP-SMZ, PBC-1. The class given is cell-based. The following applies: Escherichia coli; PBC-1, growth curves in TMP-SMZ; read-out: Minimum Inhibition Concentration (MIC). The procedure: as §1
Mannoside ZFH-2056 was added at 100 μM. Growth curves were performed in a 96-well plate at 37° C. with A600 readings taken every 30 min for 8 h.

In data set [3] the test system is UTI89. The data set can be described thus: microbe, parasite or virus in culture. The following applies: Escherichia coli.

Consider `COc1cc(Cc2cnc(N)nc2N)cc(OC)c1OC` [TMP, Trimethoprim], for which, in data set [1], the “TMP concentration in urine” value is 9.95 ± 4.36 mg/mL. In addition, the MIC in data set [2] turned out to be 256 µg/mL (≈ 882 µM); in data set [3], 0.05 µg/mL (≈ 0.172 µM).
